# According to ChEMBL document CHEMBL1201862, “PubChem BioAssay data set” (2004):
# Activity calls are given as the source filed them.
# What was measured:
# A-375 [1] = test: A375 melanoma cell viability reduction, dose response, counter-screen for MITF modulator project, cherry-pick samples, set 2 (AID 540335); type: functional, cell-based; settings: Homo sapiens
# A-375 [2] = test: MITF: Counter assay: A375 proliferation Measured in Cell-Based System Using Plate Reader - 2084-03_Inhibitor_Dose_DryPowder_Activity. [Related pubchem assays (depositor defined):AID488944]; type: functional; settings: Homo sapiens
# [3] = inhibitors of Trypanosoma cruzi host-cell infection, confirmation, beta-gal luminescence, NIH3T3 host cells (AID 2630); type: functional, cell-based; settings: Mus musculus
# INS1 [4] = test: protection of INS-1E cells from cytokine death, dose response, ATP luminescence, dry powder (AID 488844); type: functional, cell-based; settings: Rattus norvegicus
# [5] = target: NAD-dependent protein deacylase sirtuin-5, mitochondrial (Homo sapiens, UniProt Q9NXA8); test: SIRT5 desuccinylase inhibitors, dose response, biochemical, fluorescence imaging, cherry-pick, set 5 (AID 720591);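 note: desuccinylation of succinyl peptide AMC substrate read as fluorescence after trypsin release; potency of inhibitors that lower fluorescence and may act on trypsin instead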
# [6] = target: Lysine-specific demethylase 4A (Homo sapiens, UniProt O75164); test: JMJD2A histone demethylase inhibitors, dose response, selectivity assay for GASC-1 inhibitor project, biochemical, DELFIA europium, cherry-picked samples (AID 488840)
# [7] = target: Lysine-specific demethylase 4C (Homo sapiens, UniProt Q9H3R0); test: GASC-1 (JMJD2C) histone demethylase inhibitors, dose response, biochemical, DELFIA europium, cherry-picked samples (AID 488835); type: functional
# Genome polyprotein = Genome polyprotein (dengue virus type 2, UniProt P29990); test: Dengue-2 NS5 methyltransferase inhibitors, primary screen, biochemical, confirmation dose response (AID 588689); type: functional
# Vero = Vero cell cytotoxicity, cytotoxicity control for flavivirus capping enzyme inhibitors (AID 588742); type: functional; settings: Chlorocebus sabaeus
# [8] = target: T1, Corticotropin-releasing factor receptor 2/Corticotropin-releasing factor-binding protein (Homo sapiens, UniProt P24387+Q13324); test: activators of CRF receptor 2 with binding protein – uHTS hits, confirmation (AID 602473); type: functional; settings: read-out: EC50_Mean
# T1 sequence (Q13324 whole entry): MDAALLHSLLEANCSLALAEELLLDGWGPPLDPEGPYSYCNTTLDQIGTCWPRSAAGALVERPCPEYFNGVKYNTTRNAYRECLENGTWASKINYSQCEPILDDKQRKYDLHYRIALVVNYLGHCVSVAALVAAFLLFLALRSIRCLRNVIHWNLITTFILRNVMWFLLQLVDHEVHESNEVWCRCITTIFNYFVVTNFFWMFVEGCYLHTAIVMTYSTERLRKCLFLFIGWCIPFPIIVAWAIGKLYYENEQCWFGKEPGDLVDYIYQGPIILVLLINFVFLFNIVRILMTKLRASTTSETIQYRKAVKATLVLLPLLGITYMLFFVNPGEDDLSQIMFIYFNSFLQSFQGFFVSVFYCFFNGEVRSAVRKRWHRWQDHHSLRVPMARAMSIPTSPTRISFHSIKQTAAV
# T1 sequence (P24387 whole entry): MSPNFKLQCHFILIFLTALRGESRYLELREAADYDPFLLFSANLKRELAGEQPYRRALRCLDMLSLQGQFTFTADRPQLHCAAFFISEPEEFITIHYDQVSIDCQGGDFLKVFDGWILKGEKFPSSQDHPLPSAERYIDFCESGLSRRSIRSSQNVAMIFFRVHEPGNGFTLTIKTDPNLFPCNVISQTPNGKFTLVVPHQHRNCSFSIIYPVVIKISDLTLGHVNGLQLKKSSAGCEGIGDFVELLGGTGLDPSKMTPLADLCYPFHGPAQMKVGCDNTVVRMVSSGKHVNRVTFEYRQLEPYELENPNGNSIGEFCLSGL
# [9] = target: T1, Corticotropin-releasing factor receptor 2/Corticotropin-releasing factor-binding protein; test: Dose Response confirmation of uHTS hits for small molecule antagonists of the CRF-binding protein and CRF-R2 receptor complex.; type: functional; settings: read-out: IC50_Mean
# [10] = growth induction of Burl-1 ts yeast mutant, dose response, counter-screen for SUMOylation pathway inhibitor project, whole organism, S. cerevisiae, luminescence (AID 463199); type: functional
# [11] = target: Phosphoethanolamine/phosphocholine phosphatase (Homo sapiens, UniProt Q8TCT1); test: SAR assay for compounds that inhibit PHOSPHO1. [Related pubchem assays (depositor defined):AID1545, AID1565, AID1574]
# [12] = target: T2, Mannose-6-phosphate isomerase (Homo sapiens, UniProt P34949); test: PMI enzyme inhibitors, confirmation, biochemical, fluorescence intensity (AID 1535)
# T2 sequence (P34949 whole entry): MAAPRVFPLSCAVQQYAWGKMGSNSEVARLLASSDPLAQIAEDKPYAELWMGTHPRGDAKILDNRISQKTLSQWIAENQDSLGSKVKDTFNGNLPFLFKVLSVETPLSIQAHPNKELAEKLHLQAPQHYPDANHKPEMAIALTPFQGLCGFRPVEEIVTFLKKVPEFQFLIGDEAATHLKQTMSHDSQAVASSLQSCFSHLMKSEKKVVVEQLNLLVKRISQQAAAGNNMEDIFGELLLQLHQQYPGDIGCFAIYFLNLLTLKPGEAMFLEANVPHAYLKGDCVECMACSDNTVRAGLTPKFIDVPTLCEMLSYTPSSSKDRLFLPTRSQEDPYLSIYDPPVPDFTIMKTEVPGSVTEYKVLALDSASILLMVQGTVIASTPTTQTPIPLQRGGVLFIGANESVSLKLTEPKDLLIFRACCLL
# Phosphomannomutase 2 = Phosphomannomutase 2 (Homo sapiens, UniProt O15305); test: Counter screen SAR assay for PMM2 inhibitors via a fluorescence intensity assay. [Related pubchem assays (depositor defined):AID1545, AID1574]
# [13] = target: T3, Tyrosine-protein phosphatase non-receptor type 22 (Homo sapiens, UniProt Q9Y2R2); type: functional
# T3 sequence (Q9Y2R2 whole entry): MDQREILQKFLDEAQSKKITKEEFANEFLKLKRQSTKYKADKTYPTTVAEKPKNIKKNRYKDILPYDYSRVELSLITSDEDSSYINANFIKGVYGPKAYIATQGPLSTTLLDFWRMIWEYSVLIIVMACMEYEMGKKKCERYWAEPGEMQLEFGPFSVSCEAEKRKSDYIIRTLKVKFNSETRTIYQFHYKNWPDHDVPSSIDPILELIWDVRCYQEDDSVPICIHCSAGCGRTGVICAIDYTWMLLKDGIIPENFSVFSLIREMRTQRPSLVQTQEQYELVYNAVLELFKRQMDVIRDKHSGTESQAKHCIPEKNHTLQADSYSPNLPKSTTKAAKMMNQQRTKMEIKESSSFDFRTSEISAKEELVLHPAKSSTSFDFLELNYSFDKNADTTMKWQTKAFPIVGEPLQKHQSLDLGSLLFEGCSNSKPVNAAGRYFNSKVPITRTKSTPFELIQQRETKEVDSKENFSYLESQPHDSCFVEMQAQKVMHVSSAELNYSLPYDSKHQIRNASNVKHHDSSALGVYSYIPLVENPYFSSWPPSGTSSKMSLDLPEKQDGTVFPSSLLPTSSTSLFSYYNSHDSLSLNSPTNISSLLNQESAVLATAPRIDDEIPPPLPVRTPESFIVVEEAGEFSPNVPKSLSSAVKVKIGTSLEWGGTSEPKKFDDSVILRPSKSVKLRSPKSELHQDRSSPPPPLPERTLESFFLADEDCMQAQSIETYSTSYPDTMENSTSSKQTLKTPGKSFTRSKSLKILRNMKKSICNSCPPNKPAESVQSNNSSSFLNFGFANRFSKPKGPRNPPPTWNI
# [14] = inhibitors of SNCA 5'UTR-driven reporter translation, confirmation, H4 neuroglioma cells, luminescence (AID 1988); type: functional, cell-based
# [15] = target: T3, Tyrosine-protein phosphatase non-receptor type 22; type: functional; remark: listed apart in the source
# [16] = target: T4, Dual specificity protein phosphatase 6 (Rattus norvegicus, UniProt Q64346); test: MKP-3 phosphatase inhibitors, primary screen, biochemical, rat enzyme, in vitro (AID 425)
# T4 sequence (Q64346 whole entry): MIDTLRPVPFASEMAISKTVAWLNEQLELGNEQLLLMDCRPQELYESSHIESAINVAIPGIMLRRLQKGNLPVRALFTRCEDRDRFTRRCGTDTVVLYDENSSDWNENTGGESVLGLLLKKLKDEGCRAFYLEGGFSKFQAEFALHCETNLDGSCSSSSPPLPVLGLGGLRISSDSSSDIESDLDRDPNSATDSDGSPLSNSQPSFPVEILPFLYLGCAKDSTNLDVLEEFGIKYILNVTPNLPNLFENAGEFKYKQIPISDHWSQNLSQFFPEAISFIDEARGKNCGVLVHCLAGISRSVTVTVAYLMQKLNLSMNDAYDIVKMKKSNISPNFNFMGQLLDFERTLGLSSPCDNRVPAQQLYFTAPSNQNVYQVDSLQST
# [17] = target: T5, Dual specificity protein phosphatase 3 (Homo sapiens, UniProt P51452); test: VHR1 phosphatase inhibitors, primary screen, biochemical, absorbance, uHTS (AID 1654)
# [18] = target: T5, Dual specificity protein phosphatase 3; test: VHR1 phosphatase inhibitors, biochemical (AID 1878)
# INS1 [19] = test: beta cell apoptosis inhibitors, cytokine rescue, dose response, luminescence, retest (AID 449756); type: functional, cell-based; settings: Rattus norvegicus;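 note: cell death triggered by IL-1 beta plus TNF-alpha plus IFN-gamma mixture; protective hits raise ATP signal compared with cytokine alone wells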
# [20] = Luminescence Cell-Based Dose Response HTS to Identify Inhibitors of 5'UTR Stem-Loop Driven Prion Protein mRNA Translation in H4 Neuroglioblastoma Cells. [Related pubchem assays: 1827 (Project Summary), 1813 (Primary HTS)]; type: functional
# [21] = target: T6, Tyrosine-protein phosphatase non-receptor type 7 (Homo sapiens, UniProt P35236); type: functional
# T6 sequence (P35236 whole entry): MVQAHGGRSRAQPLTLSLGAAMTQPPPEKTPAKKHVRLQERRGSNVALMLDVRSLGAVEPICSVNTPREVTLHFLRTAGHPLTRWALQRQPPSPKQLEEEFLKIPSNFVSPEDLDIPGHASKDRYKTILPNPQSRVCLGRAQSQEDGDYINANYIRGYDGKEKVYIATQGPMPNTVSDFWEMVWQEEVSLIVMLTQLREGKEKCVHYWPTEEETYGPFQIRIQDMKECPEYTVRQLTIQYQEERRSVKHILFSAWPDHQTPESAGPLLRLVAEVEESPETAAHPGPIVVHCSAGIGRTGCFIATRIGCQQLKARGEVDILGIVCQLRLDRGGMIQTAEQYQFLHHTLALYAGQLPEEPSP
# [22] = inhibitors of firefly luciferase expression or activity, dose response, H4 neuroglioma cells, luminescence (AID 1990); type: functional, cell-based
# [23] = target: Induced myeloid leukemia cell differentiation protein Mcl-1 (Homo sapiens, UniProt Q07820); test: MCL1-BIM BH3 interaction inhibitors, dose response, biochemical, fluorescence polarization, BIM-BH3 peptide, 1536-well (AID 2217)
# Bcl-2-like protein 1 = Bcl-2-like protein 1 (Homo sapiens, UniProt Q07817); test: BCL-XL inhibitors, dose response, selectivity assay for MCL1 inhibitor project, biochemical, fluorescence polarization, 1536-well (AID 2218)
# Bcl-2-like protein 1, sequence (Q07817 whole entry): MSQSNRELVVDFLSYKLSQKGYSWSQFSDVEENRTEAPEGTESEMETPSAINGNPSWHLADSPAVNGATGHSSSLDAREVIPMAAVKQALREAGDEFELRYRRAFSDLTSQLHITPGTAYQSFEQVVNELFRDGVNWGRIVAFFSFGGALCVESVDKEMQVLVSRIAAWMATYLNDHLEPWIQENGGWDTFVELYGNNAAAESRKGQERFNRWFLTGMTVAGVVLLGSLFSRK
# T5 sequence (P51452 whole entry): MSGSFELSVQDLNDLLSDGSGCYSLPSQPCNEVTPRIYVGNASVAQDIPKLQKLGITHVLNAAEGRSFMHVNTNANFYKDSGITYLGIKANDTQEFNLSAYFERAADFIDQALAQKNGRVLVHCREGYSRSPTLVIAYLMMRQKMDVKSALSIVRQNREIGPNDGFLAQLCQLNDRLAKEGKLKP
# Lysine-specific demethylase 4C, sequence (Q9H3R0 whole entry): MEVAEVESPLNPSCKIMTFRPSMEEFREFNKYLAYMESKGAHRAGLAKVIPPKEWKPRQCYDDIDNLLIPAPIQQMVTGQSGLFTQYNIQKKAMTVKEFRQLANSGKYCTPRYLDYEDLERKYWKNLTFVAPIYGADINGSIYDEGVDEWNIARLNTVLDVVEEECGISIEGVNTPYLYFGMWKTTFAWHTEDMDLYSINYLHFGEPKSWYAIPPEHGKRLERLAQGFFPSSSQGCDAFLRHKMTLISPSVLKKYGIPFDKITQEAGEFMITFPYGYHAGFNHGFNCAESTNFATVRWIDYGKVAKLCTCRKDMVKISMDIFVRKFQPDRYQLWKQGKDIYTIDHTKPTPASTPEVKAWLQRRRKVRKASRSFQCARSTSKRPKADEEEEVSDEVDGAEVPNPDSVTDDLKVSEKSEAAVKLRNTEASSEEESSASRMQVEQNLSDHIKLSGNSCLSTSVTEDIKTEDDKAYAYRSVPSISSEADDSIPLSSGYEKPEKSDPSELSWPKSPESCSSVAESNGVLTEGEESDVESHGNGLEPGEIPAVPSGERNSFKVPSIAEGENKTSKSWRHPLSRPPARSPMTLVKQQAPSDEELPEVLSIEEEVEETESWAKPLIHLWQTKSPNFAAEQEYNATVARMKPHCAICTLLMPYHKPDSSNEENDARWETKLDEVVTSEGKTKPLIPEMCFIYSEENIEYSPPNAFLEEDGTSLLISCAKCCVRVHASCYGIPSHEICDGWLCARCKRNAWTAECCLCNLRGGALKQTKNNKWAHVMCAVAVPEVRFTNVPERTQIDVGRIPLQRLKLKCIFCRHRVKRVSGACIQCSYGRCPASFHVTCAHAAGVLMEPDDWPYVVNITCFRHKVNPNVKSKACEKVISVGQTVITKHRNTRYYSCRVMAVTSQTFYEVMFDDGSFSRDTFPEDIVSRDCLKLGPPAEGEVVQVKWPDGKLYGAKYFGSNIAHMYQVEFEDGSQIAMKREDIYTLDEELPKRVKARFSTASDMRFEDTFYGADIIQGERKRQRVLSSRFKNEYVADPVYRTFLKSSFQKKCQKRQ
# Phosphomannomutase 2, sequence (O15305 whole entry): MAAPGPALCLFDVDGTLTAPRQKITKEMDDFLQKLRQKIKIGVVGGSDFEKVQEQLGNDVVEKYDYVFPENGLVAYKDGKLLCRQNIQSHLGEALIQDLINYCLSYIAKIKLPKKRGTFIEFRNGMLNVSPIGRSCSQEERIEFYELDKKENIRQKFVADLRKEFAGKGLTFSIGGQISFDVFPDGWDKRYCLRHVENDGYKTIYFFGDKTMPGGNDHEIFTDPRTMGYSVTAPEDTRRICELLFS
# Induced myeloid leukemia cell differentiation protein Mcl-1, sequence (Q07820 whole entry): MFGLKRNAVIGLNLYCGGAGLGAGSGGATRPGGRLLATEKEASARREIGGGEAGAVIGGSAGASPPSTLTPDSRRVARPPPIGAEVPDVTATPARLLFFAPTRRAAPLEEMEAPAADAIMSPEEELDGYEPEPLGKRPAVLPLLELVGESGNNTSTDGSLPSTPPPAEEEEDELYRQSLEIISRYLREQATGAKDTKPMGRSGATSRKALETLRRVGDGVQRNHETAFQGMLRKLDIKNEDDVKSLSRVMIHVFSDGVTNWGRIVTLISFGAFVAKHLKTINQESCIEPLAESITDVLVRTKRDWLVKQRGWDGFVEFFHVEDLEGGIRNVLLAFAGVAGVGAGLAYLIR
# NAD-dependent protein deacylase sirtuin-5, mitochondrial, sequence (Q9NXA8 whole entry): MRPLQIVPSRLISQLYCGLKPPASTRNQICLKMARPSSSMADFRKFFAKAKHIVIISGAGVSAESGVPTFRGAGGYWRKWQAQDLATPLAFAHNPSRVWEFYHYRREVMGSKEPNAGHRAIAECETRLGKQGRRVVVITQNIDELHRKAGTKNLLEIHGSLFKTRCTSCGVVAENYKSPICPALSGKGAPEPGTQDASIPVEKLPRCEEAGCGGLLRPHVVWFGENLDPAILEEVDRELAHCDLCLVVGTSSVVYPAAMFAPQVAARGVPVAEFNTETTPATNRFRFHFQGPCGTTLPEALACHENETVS
# Lysine-specific demethylase 4A, sequence (O75164 whole entry): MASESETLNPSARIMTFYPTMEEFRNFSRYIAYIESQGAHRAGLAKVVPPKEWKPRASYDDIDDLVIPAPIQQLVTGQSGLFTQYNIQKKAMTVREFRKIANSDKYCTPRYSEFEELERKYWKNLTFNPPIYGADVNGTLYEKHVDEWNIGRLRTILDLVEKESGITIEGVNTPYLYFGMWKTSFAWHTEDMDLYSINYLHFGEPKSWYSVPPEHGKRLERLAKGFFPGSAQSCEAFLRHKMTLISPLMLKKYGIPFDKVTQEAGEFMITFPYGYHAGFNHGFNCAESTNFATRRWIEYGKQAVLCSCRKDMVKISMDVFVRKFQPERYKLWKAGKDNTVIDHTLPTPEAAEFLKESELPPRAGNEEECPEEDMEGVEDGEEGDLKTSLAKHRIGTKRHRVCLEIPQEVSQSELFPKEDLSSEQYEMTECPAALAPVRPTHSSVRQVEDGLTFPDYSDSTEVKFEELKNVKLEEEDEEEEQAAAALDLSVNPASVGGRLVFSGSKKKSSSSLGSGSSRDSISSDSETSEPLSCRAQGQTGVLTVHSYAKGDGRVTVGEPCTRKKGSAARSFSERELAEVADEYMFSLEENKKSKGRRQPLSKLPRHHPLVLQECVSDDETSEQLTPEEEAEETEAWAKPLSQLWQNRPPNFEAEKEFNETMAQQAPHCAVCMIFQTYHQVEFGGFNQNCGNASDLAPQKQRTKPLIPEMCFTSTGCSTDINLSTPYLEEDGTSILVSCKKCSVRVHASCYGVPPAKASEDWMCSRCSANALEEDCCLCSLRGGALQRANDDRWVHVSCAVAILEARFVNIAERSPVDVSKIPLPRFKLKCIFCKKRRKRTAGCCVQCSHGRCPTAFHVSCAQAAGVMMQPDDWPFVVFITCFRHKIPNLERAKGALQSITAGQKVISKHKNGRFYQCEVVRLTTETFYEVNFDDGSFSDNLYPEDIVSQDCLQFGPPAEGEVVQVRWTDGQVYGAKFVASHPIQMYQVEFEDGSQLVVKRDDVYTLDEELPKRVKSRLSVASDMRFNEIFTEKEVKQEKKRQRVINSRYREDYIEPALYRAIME
# Genome polyprotein, sequence (P29990 2492-3391 limits assumed): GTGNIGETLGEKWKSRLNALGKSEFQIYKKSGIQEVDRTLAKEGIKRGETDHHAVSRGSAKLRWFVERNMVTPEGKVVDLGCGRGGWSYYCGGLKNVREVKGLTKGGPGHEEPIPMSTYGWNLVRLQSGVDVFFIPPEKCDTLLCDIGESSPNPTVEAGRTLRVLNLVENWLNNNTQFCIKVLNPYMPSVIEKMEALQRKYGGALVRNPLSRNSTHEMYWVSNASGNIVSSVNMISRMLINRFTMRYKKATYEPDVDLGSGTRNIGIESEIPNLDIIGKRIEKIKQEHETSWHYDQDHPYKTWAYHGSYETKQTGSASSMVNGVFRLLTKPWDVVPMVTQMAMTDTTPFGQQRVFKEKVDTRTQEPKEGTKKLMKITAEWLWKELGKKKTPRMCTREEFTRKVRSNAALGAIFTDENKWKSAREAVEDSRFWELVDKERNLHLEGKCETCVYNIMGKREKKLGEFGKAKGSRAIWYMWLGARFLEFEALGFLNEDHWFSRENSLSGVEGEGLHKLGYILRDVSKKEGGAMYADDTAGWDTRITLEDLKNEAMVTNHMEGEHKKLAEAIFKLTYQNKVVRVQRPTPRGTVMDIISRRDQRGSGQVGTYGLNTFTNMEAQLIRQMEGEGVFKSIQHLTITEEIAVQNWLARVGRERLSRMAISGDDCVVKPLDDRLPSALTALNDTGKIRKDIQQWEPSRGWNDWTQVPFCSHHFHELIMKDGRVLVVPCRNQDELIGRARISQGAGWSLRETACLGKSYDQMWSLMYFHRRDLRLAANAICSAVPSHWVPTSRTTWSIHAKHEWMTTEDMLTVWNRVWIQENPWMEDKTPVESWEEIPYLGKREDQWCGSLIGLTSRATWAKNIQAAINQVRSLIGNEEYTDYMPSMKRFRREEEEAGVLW
# Phosphoethanolamine/phosphocholine phosphatase, sequence (Q8TCT1 whole entry): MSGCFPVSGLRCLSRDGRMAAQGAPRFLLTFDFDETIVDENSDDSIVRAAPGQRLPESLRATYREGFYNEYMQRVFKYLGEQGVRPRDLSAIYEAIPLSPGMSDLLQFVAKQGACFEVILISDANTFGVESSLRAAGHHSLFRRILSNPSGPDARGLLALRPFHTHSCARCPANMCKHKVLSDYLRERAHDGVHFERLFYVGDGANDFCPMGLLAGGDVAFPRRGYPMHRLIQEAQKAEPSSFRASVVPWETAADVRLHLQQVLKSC
compound,measurement,setting,value
O=C(NCCNc1ccccc1[N+](=O)[O-])c1cc(F)c(F)cc1Cl,AC50,A-375 [1],> 11 µM (active)
same,AC50,A-375 [2],> 11 µM (active)
COc1ccc(C(=O)C2CCCN(CC3CCCCC3)C2)cc1OC (configuration not stated),EC50,[3],0.452 µM (active)
C[C@@H]1CN([C@H](C)CO)C(=O)c2cccc(NC(=O)Nc3ccccc3)c2O[C@H]1CN(C)S(=O)(=O)c1ccc(F)cc1,AC50,INS1 [4],38.3 µM (active)
CCc1ccc([C@@H]2CC=C(C(=O)O)[C@H](c3ccc(C(C)(C)C)cc3)N2S(=O)(=O)c2ccc(C)cc2)cc1,AC50,[5],13.5 µM (active)
same,AC50,[6],9.31 µM (active)
same,AC50,[7],14.8 µM (active)
same,IC50,Genome polyprotein,37 µM (active)
same,CC50,Vero,> 40 µM (active)
same,EC50,[8],27.8 µM (active)
same,IC50,[9],< 0.368 µM (active)
C=CCN(C(=O)CNC(=O)c1ccco1)C(C(=O)NC1CCCCC1)c1ccccc1 (configuration not stated),AC50,[10],101 µM (active)
O=C1c2ccccc2C(=O)c2c1ccc1c(=O)n(-c3ccccc3)sc21,IC50,[11],1.96 µM (inactive)
same,IC50,[12],> 50 µM (inactive)
same,IC50,Phosphomannomutase 2,> 100 µM (inactive)
COc1cccc(/C=N/NC(=O)c2cc3cc([N+](=O)[O-])ccc3s2)c1O,IC50,[13],13.1 µM (active)
same,EC50,[14],7.86 µM (active)
same,IC50,[15],15.7 µM (active)
same,IC50,[16],116 µM (not active)
same,IC50,[17],25.2 µM (active)
same,IC50,[18],5.31 µM (active)
same,AC50,INS1 [19],3.15 µM (active)
same,EC50,[20],9.8 µM (active)
same,IC50,[21],14.9 µM (active)
same,EC50,[22],7.1 µM (active)
same,IC50,[23],2.02 µM (active)
same,IC50,Bcl-2-like protein 1,> 109 µM (not active)
